From PMC9024597, “The Biological Fate of a Novel Anticancer Drug Candidate TNBG-5602: Metabolic Profile, Interaction with CYP450, and Pharmacokinetics in Rats” (Molecules, 2022)
pIC50: −log10 of the molar value.

Experiments:
[1] = Pharmacokinetics in rats after a single intravenous administration
Procedure: Sample separation was carried out on a CSH C18 Column (3.0 × 75 mm, 1.7 μm). The mobile phase consisted of Eluent A (0.1% aqueous formic acid) and Eluent B (acetonitrile: methanol, 80:20, v/v) at a flow rate of 0.4 mL min^−1. […] The column temperature was set to 35 °C. The injection volume was 5 μL. The optimized spectrometric parameters were set as follows: a capillary voltage of 4 kV, gas temperature of 300 °C, gas flow rate of 5 L min^−1, nebulizer of 45 Psi, sheath gas temperature of 250 °C, and sheath gas flow rate of 10 L min^−1. The UPLC-MS/MS data were acquired and processed using the Mass Hunter MS Optimizer software (version B.07.00). Detection was performed under multiple reaction monitoring (MRM) mode with the positive-ion electrospray-ionization (ESI) mode.
For the pharmacokinetic analyses, five rats were administered at a dose of 4.8 mg kg^−1 body weight via the caudal vein.
The whole blood samples were immediately centrifuged at 13,000 rpm for 5 min upon collection, and the supernatants were stored at −80 °C until analysis.
Obtained plasma (50 μL) was thawed and spiked with 50 μL of the IS working solution (50 ng mL^−1). The mixture was deproteinized and extracted using 1 mL of acetonitrile by using a vortex for 2 min.

liver cancer cells = tested on: liver cancer cells; set-up: method as in PMID 31446646; conditions: cited from earlier work
[2] = tested on: five human cancer cell lines; set-up: method as in PMID 35541052; conditions: cited from earlier work
[3] = Stability of TNBG-5602 rat plasma samples on storage and freeze-thaw; type: in vitro ADME; conditions: stored at −20 and −80 °C
CYP2D6 = molecular target: T1, CYP2D6 (Homo sapiens, UniProt P10635); assay: IC50 assessment using recombinant human CYPs (probe dextromethorphan); type: in vitro ADME; conditions: recombinant CYP 0.025 μM, dextromethorphan 0.05 mg mL^−1, 37 °C, 30 min, n = 3; read-out: IC50 against CYP2D6
T1 construct: purchased IPHASE
Procedure: Figure 12 The inhibition curves for TNBG-5602 against cytochrome enzymes (mean ± SD, n = 3). TNBG-5602 (final concentrations of 0, 0.01, 0.1, 1.0, 10.0, and 100 μM) was incubated with recombinant cytochrome P450s (final concentration 0.025 μM) and the specific probe substates (final concentration 0.05 mg mL^−1) with NADPH to initiate the metabolic reaction. The incubations were carried out at 37 °C for 30 min with a total volume of 200 μL. The CYP isoforms tested were 2D6 (dextromethorphan), 2C9 (tolbutamide), and 3A4 (testosterone). […] The IC50 values were calculated using the GraphPad Prism statistical software (Version 8) by nonlinear regression analysis.
The LC-MS/MS instrument was the same as the system used to determine TNBG-5602. The mobile phase consisted of 0.1% formic acid, aqueous solution (Solvent A), and acetonitrile (Solvent B) at a flow rate of 0.3 mL min^−1. […]
For IC50 assessment, the inhibition curves were established by nonlinear regression analysis plotting the relative activity (y) versus the logarithm of the TNBG-5602 concentration (x). The inhibition curve and the half-maximal inhibitory concentration of TNBG-5602 against each CYP isoform were analyzed using the GraphPad Prism statistical software (version 8). […]

[4] = rats, i.v. 4.8 mg kg^−1, non-compartment model, mean, n = 5
[5] = rats, i.v. 4.8 mg kg^−1, two-compartment model, mean, n = 5

T1 sequence (P10635 whole entry): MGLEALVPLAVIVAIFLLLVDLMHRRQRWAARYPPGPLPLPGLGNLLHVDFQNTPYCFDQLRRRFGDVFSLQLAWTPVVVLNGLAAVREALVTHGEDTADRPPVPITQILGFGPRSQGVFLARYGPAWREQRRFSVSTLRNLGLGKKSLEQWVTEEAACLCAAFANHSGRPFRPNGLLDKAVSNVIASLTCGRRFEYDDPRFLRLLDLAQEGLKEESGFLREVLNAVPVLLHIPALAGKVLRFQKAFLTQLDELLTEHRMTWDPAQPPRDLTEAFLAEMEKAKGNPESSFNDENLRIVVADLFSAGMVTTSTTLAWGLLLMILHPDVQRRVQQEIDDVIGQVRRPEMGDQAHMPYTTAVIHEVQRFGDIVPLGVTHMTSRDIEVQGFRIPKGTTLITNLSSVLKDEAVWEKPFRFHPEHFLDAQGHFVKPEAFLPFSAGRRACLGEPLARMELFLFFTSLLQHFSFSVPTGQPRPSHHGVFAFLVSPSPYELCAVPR

SMILES: CN(C)CCN1CC2c3ccccc3CCN2c2nc3ccccc3nc21 (centres unmarked) [TNBG-5602]
- k el ([1]; rat, in vivo, iv, 4.8 mg/kg): 6.67e-05 s⁻¹
- half-life ([1]; rat, plasma, iv, 4.8 mg kg^−1, half-life, rats): ~12 h
- Cmax ([1]; rat, plasma, iv, 4.8 mg/kg): 0.171 µg/mL
- MRT inf ([1]; rat, plasma, iv, 4.8 mg/kg): 15.5 h
- MRT last ([1]; rat, plasma, iv, 4.8 mg/kg): 7.13 h
- Vd ([1]; rat, plasma, iv, 4.8 mg/kg): 20.2 L
- clearance ([1]; rat, plasma, iv, 4.8 mg/kg, CL (clearance), rats, i.v. 4.8 mg kg^−1, two-compartment model, mean, n = 5): 22 mL/min
- clearance ([1]; rat, plasma, iv, 4.8 mg/kg, CLt (total body clearance), rats, i.v. 4.8 mg kg^−1, non-compartment model, mean, n = 5): 19 mL/min
- Tmax ([1]; rat, plasma, iv, 4.8 mg/kg, Tmax, rats, i.v. 4.8 mg kg^−1, non-compartment model, mean, n = 5): ≤ 5 min
- half-life ([1]; rat, plasma, iv, 4.8 mg/kg, t1/2, rats, i.v. 4.8 mg kg^−1, non-compartment model, mean, n = 5): 11.6 h
- half-life ([1]; rat, plasma, iv, 4.8 mg/kg, t1/2β (elimination half-life), rats, i.v. 4.8 mg kg^−1, two-compartment model, mean, n = 5): 11.8 h
- AUC(0–t) [1, 4]: 45513 µg·min/L
- AUC(0–∞) [1, 4]: 56248 µg·min/L
- t1/2 [1, 4]: 11.56 h
- A (zero-time intercept of the α distribution phase) [1, 5]: 127.2 µg/L
- B (zero-time intercept of the elimination phase) [1, 5]: 57.6 µg/L
- K12 (transfer rate constant central to peripheral compartment) [1, 5]: 0.028 min⁻¹
- K21 (transfer rate constant peripheral to central compartment) [1, 5]: 0.019 min⁻¹
- Vc (apparent volume of the central compartment) [1, 5]: 6.985 L
- Vp (apparent volume of the peripheral compartment) [1, 5]: 13.2 L
- t1/2α [1, 5]: 0.457 h
- distribution volume of the peripheral compartment relative to the central compartment ([1]; rats, i.v., two-compartment model): 1.88 fold
- in vivo clearance as % liver blood flow in rats ([1]; rats, i.v., liver blood flow ref 19): 200%
- apparent volume of distribution relative to total body water in rats ([1]; rats, i.v., total body water ref 19): approximately 155 fold
- apparent clearance rate from the central compartment to the peripheral compartment ([1]; rats, single i.v. administration): 0.028 ± 0.033 L/min
- inhibition of proliferation of liver cancer cells in vitro (liver cancer cells): effectively inhibited the proliferation
- inhibitory activity against five human cancer cell lines [2]: strong inhibitory activity
- time plasma samples were stable on storage [3]: at least 90 days
- pIC50 (CYP2D6): 5.60
